Tests used:
Type in all cases: cell-based
[1] = system: MDA-MB-231 (breast cancer); assay: Antiproliferative activity (CCK-8 cell viability), MDA-MB-231; conditions: Homo sapiens, 72 h, read-out: Antiproliferative activity in cancerous cells, MDA-MB-231 (inhibition of cell growth); for inhibition at 3.3 µM: Compound concentration: 3.3 μM; for inhibition at 10 µM: Compound concentration: 10 μM
How it was run: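 Growth inhibition of human MDA-MB-231 breast cancer cells was assessed with a Cell Counting Kit-8. Cells cultured in DMEM plus 10% FBS were seeded at 2,000-5,000 cells/well, treated after attachment, and kept 72 h at 37° C. CCK-8 solution (10 μL) was added for 4 h, and absorbance at 450 nm was compared with DMSO-treated controls.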

[2] = system: SW480 (colon cancer); assay: Antiproliferative activity (CCK-8 cell viability), SW480; conditions: Homo sapiens, 72 h, read-out: Antiproliferative activity in cancerous cells, SW480 (inhibition of cell growth); for inhibition at 3.3 µM: Compound concentration: 3.3 μM; for inhibition at 10 µM: Compound concentration: 10 μM
How it was run: (§1)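 Growth inhibition graded in bands from percent viability against DMSO vehicle, read as CCK-8 absorbance at 450 nm. Compound tested at 3.3, 10 or 30 μM for 72 h, 37 °C; media contained 10% FBS: DMEM for HepG2/SW480, MEM for HeLa, F-12K for A549.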

[3] = system: HepG2 (liver cancer); assay: Antiproliferative activity (CCK-8 cell viability), HepG2; conditions: Homo sapiens, 72 h, read-out: Antiproliferative activity in cancerous cells, HepG2 (inhibition of cell growth); for inhibition at 3.3 µM: Compound concentration: 3.3 μM; for inhibition at 10 µM: Compound concentration: 10 μM
How it was run: as §1

[4] = system: A431 (epidermoid carcinoma); assay: Antiproliferative activity (CCK-8 cell viability), A431; conditions: Homo sapiens, 72 h; for inhibition at 3.3 µM: A-431, Compound concentration: 3.3 μM; for inhibition at 3.3 µM / inhibition at 10 µM: read-out: Antiproliferative activity in cancerous cells, A431 (inhibition of cell growth); for inhibition at 10 µM: A-431, Compound concentration: 10 μM
How it was run: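 This growth inhibition assay used A431 cells maintained in Dulbecco's modified Eagle's medium plus 10% fetal bovine serum. Cells were seeded in 96-well plates, treated with compound for 72 h at 37° C., and then given 10 μL CCK-8 solution. After a further 4 h, absorbance was read at 450 nm.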

[5] = system: HeLa (cervical cancer); assay: Antiproliferative activity (CCK-8 cell viability), HeLa; conditions: Homo sapiens, 72 h; for inhibition at 3.3 µM: Compound concentration: 3.3 μM; for inhibition at 3.3 µM / inhibition at 10 µM: read-out: Antiproliferative activity in cancerous cells, HELA (inhibition of cell growth); for inhibition at 10 µM: Compound concentration: 10 μM
How it was run: as §1

[6] = system: B16F10 (malignant melanoma); assay: Antiproliferative activity (CCK-8 cell viability), B16F10; conditions: Mus musculus, 72 h; for inhibition at 3.3 µM: B16-F10, Compound concentration: 3.3 μM; for inhibition at 3.3 µM / inhibition at 10 µM: read-out: Antiproliferative activity in cancerous cells, B16F10 (inhibition of cell growth); for inhibition at 10 µM: B16-F10, Compound concentration: 10 μM
How it was run: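 Cell growth inhibition was measured in B16F10 malignant melanoma cells with a Cell Counting Kit-8 viability assay. Cells were maintained in DMEM plus 10% fetal bovine serum, seeded at 2,000-5,000 cells/well in 96-well plates, and treated for 72 h at 37° C. Viability was expressed relative to DMSO-treated vehicle control wells.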

[7] = system: A549 (lung adenocarcinoma); assay: Antiproliferative activity (CCK-8 cell viability), A549; conditions: Homo sapiens, 72 h, read-out: Antiproliferative activity in cancerous cells, A549 (inhibition of cell growth); for inhibition at 3.3 µM: Compound concentration: 3.3 μM; for inhibition at 10 µM: Compound concentration: 10 μM
How it was run: as §1

[8] = system: alpha-smooth muscle actin (α-SMA); assay: Inhibition of TGF-β induced expression of alpha-smooth muscle actin (α-SMA) in CFSC cells (western blot); conditions: compound at 10 μM, TGF-β (10 ng/mL), 24 hours, band intensity vs TGF-β only
How it was run: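 Values are percent reduction of α-SMA band intensity relative to cells given TGF-β alone, quantified by Western blot densitometry with β-actin probed. Compound was applied at 10 μM alongside 10 ng/mL TGF-β to serum-free CFSC cultures for 24 h at 37 °C.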

Compound | inhibition at 3.3 µM [1] | inhibition at 10 µM [1] | inhibition at 3.3 µM [2] | inhibition at 10 µM [2] | inhibition at 3.3 µM [3] | inhibition at 10 µM [3] | inhibition at 3.3 µM [4] | inhibition at 10 µM [4] | inhibition at 3.3 µM [5] | inhibition at 10 µM [5] | inhibition at 3.3 µM [6] | inhibition at 10 µM [6] | inhibition at 3.3 µM [7] | inhibition at 10 µM [7] | inhibition at 10 µM [8] | inhibition at 30 µM ([4]; A-431, Compound concentration: 30 μM, read-out: Antiproliferative activity in cancerous cells, A431) | inhibition at 30 µM ([5]; Compound concentration: 30 μM, read-out: Antiproliferative activity in cancerous cells, HELA) | inhibition at 30 µM ([6]; B16-F10, Compound concentration: 30 μM, read-out: Antiproliferative activity in cancerous cells, B16F10)
CC1=C(CC(=O)NCCN(C)C)c2cc(F)ccc2/C1=C\c1ccc(Oc2ccc(F)cc2)cc1 [C38, (Z)-N-(2-(Dimethylamino)ethyl)-2-(5-fluoro-1-(4-(4-fluorophenoxy)benzylidene)-2-methyl-1H-inden-3-yl)acetamide] | < 30% | ≥ 50% | < 30% | ≥ 50% | < 30% | ≥ 50% | < 30% | ≥ 50% | < 30% | ≥ 50% | ≥ 50% | ≥ 50% | ≥ 50% | ≥ 50% | > 80% |  |  | 
CC1=C(CC(=O)O)c2cc(F)ccc2/C1=C\c1ccc(CN(Cc2ccccn2)c2ccccc2)cc1 [B16, (Z)-2-(5-Fluoro-2-methyl-1-(4-((phenyl(pyridin-2-ylmethyl)amino)methyl)-benzylidene)-1H-inden-3-yl)acetic acid] | ≥ 50% | ≥ 50% | < 30% | < 30% | < 30% | ≥ 50% | < 30% | ≥ 50% | 30 to 50% | ≥ 50% | 30 to 50% | ≥ 50% | ≥ 50% | ≥ 50% | > 80% |  |  | 
CC1=C(CC(=O)N2CCN(CCO)CC2)c2cc(F)ccc2/C1=C\c1ccc(Oc2ccc(F)cc2)cc1 [C37, (Z)-2-(5-Fluoro-1-(4-(4-fluorophenoxy)benzylidene)-2-methyl-1H-inden-3-yl)-1-(4-(2-hydroxyethyl)piperazin-1-yl)ethan-1-one] | < 30% | < 30% | < 30% | < 30% | < 30% | < 30% | < 30% | < 30% | < 30% | < 30% | < 30% | < 30% | < 30% | < 30% | > 80% | 30 to 50% | < 30% | < 30%
O=C(O)CC1=C(Cc2ccc(F)cc2)/C(=C/c2ccc(Oc3ccc(F)cc3)cc2)c2ccc(F)cc21 [C14, (Z)-2-(5-Fluoro-2-(4-fluorobenzyl)-1-(4-(4-fluorophenoxy)benzylidene)-1H-inden-3-yl)acetic acid] | ≥ 50% | ≥ 50% | < 30% | ≥ 50% | ≥ 50% | ≥ 50% | ≥ 50% | ≥ 50% | ≥ 50% | ≥ 50% | ≥ 50% | ≥ 50% | < 30% | ≥ 50% | > 80% |  |  | 
